Data: US9364448B2, “Nitisinone for treatment of oculocutaneous/ocular albinism and for increasing pigmentation” (The United States of America, as represented by the …, priority 2010, dated 2016)

Columns and labels:
[1] = tested on: C57BL/6J-Tyr^c-h/c-h mice (OCA1b model); assay: Transmission electron microscopy of iris, RPE and choroid, Tyr^c-h/c-h mice; format: in vivo, mouse; conditions: treated vs controls, statistically significant in all three tissues, FIG. 4
Procedure: (§1) Transmission Electron Microscopy. Eyes from drug and vehicle-treated mice were dissected and divided into anterior and posterior segments (n=2 eyes from 2 separate mice in each group). The iris and posterior part (choroid, RPE and retina) of the eyes were removed and fixed in 2% glutaraldehyde and 2% paraformaldehyde in 0.1 M sodium phosphate buffer (PB), pH 7.4 for about 12 hours at room temperature (RT). After a wash with rinsing buffer (RB, 4% sucrose and 0.15 mM CaCl2 in PB), pH 7.4 at 4° C., tissues were postfixed in 1% OsO4 in 0.1 M PB, pH 7.4 for 1 hour. After rinsing and dehydration, tissues were embedded in Durcupan resin for 72 hours at 60° C. One micron semi-sections were used for tissue orientation. About 70-90 nm ultrasections were also collected in 200 mesh grids and counterstained with 5% uranyl acetate and 0.3% lead citrate. […]
(§2) In order to quantitate the effect of NTBC on pigmentation in ocular tissues and to assess for sub-clinical changes in ocular pigmentation, transmission electron microscopy (TEM) of iris, retinal pigment epithelium (RPE), and choroid of treated and control mice (n=4 eyes from 2 mice for each group) was performed. […]

[2] = tested on: C57BL/6J-Tyr^c-2J/c-2J mice (OCA1a model); assay: Plasma tyrosine in NTBC-treated Tyr^c-2J/c-2J mice; format: in vivo, mouse
Procedure: Drug Dosing and Monitoring. […] Plasma tyrosine was assayed from retro-orbital blood taken from mice at 1 week, and 4 weeks into treatment. Because the volume of blood that could be obtained from non-terminal bleeds was small, the plasma from 2-3 mice was pooled to make a single measurement. Plasma samples were frozen immediately after collection on dry ice. Samples ready for assay were gently thawed, diluted with an equal volume of loading buffer (0.2 M lithium citrate, pH 2.2), and filtered using Vivaspin 500 (3000 Da molecular weight cut-off, Sartorius Stedman Biotech, Goettingen, Germany) spun in a fixed angle centrifuge at about 14000×g for 60 minutes at a temperature of about 16-20° C. The supernatant was collected and tyrosine was quantitated on a Biochrom 30 […] (Biochrom, Ltd., Cambridge, UK) using the manufacturer's specifications. At the beginning of the study, baseline plasma concentrations of tyrosine, coat color (gross and microscopic), anterior segment pigment, and posterior segment pigment were documented for each mouse prior to initiating experiments. […] It is known that a possible side effect of NTBC treatment is corneal irritation, which is monitored daily. […] At the end of four weeks time, plasma tyrosine concentrations were assessed in both treated and control animals.

[3] = tested on: C57BL/6J-Tyr^c-2J/c-2J mice (OCA1a model); assay: Transmission electron microscopy of iris, RPE and choroid, Tyr^c-2J/c-2J mice; format: in vivo, mouse; conditions: treated vs untreated
Procedure: as §1, §2

[4] = affected individuals, oral dosing; cited from earlier work

SMILES: O=C1CCCC(=O)C1C(=O)c1ccc(C(F)(F)F)cc1[N+](=O)[O-] [NTBC, 2-(-2-nitro-4 trifluoromethylbenzoyl)-1,3 cyclohexanedione]
- Number of pigmented melanosomes in iris, choroid and RPE (TEM) [1]: clear increase
- Plasma tyrosine concentration ([2]; Tyr^c-2J/c-2J (OCA1a model), 4 mg/kg q.o.d. oral, after 30 days, n = 4): 673 ± 73 μM (n = 4,
- Plasma tyrosine concentrations, treated vs control ([2]; Tyr^c-2J/c-2J mice, 1 mg/kg every other day by oral gavage, one month): not statistically significantly different
- Number of pigmented melanosomes (stages III and IV) in iris, choroid and RPE (TEM) [3]: little to no increase
- Half-life [4]: 50 to 60 h
